Like-named read-outs stand apart in the source and are kept apart here. *1 amine or outer side, *2 acyl side, *3 side chain or, on linkers, in order; H or OH if unused. Where a SMILES comes first, the peptide text is derived from it. Bridges are numbered along the chain shown (N, C = ends). [ ]: non-standard residue; d: D form. The star is where a group is joined. hPhe(3-Cl-4-CF3) = N[C@@H](CCc1ccc(C(F)(F)F)c(Cl)c1)C(=O)O; X38 = C#CCN([C@@H](Cc1ccc(C(F)(F)F)cc1)C(=O)[*:2])[*:1]; NPrPhe(4-CF3) = CCCN[C@@H](Cc1ccc(C(F)(F)F)cc1)C(=O)O; NMeGly(cPent) = CN[C@H](C(=O)O)C1CCCC1; Pro(4,4-Me2) = CC1(C)CN[C@H](C(=O)O)C1; NMeD = CN[C@@H](CC(=O)O)C(=O)O; NMeL = CN[C@@H](CC(C)C)C(=O)O; Morpholide = C1CN(*)CCO1; NMeA = CN[C@@H](C)C(=O)O; Ac5c = NC1(C(=O)O)CCCC1; Aze = O=C(O)[C@@H]1CCN1; Sar = CNCC(=O)O
Columns and labels:
[1] = target: GDP-bound NRAS wild-type protein (Homo sapiens, UniProt P01111); test: Binding to NRAS by surface plasmon resonance (SPR), Single Cycle Kinetics
Sequence of GDP-bound NRAS wild-type protein (P01111 whole entry): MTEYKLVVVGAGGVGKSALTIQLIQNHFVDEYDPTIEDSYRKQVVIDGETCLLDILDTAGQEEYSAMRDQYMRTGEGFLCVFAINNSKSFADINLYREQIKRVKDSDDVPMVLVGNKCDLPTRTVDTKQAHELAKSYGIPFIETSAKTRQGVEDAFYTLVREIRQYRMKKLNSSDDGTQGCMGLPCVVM

[2] = target: GDP-bound KRAS wild-type protein (Homo sapiens, UniProt P01116); test: Binding to KRAS by surface plasmon resonance (SPR), Single Cycle Kinetics; details: GDP-bound KRAS wild-type protein, read-out: KRAS KD
Sequence of GDP-bound KRAS wild-type protein (P01116 whole entry): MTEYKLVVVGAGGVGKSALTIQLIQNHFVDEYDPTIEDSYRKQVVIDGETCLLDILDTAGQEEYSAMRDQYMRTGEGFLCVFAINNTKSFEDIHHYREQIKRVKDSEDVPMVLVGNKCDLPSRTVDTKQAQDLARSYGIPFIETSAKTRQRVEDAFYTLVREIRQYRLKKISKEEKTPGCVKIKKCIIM

[3] = target: GDP-bound HRAS wild-type protein (Homo sapiens, UniProt P01112); test: Binding to HRAS by surface plasmon resonance (SPR), Single Cycle Kinetics
Sequence of GDP-bound HRAS wild-type protein (P01112 whole entry): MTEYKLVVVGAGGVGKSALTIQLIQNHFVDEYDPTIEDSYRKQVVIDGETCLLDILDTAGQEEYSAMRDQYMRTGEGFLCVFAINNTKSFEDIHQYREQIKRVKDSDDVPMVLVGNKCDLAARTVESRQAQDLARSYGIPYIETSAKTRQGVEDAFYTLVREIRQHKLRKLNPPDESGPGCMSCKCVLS

[4] = SPR, GDP-bound NRAS wild-type protein vs GDP-bound KRAS wild-type protein
[5] = SPR Single Cycle Kinetics, 1:1 binding model
[6] = SPR, GDP-bound HRAS wild-type protein vs GDP-bound KRAS wild-type protein

Row | SMILES | Kd [2, 5] | Kd ([2]; SPR, Single Cycle Kinetics) | NRAS/KRAS (ratio of KD value for NRAS to KD value for KRAS) [1, 4] | HRAS/KRAS (ratio of KD value for HRAS to KD value for KRAS) [3, 6] | NRAS/KRAS (ratio of KD value with respect to NRAS to KD value with respect to KRAS) [1, 4] | HRAS/KRAS (ratio of KD value with respect to HRAS to KD value with respect to KRAS) [3, 6] | NRAS/KRAS (ratio of KD value with respect to GDP-bound NRAS wild-type protein to KD value with respect to KRAS) ([1]; SPR KD ratio NRAS/KRAS, class symbols) | HRAS/KRAS (ratio of KD value with respect to GDP-bound HRAS wild-type protein to KD value with respect to KRAS) ([3]; SPR KD ratio HRAS/KRAS, class symbols)
1 | CCO[C@@H]1C[C@H]2C(=O)NC3(CC(C)(C)C3)C(=O)N(C)[C@@H](C(CC)CC)C(=O)N(C)[C@H](C(=O)N(C)C)CC(=O)N(C)[C@@H](CC)C(=O)N[C@@H]([C@@H](C)CC)C(=O)N(C)CC(=O)N(C)[C@H]3C/C=C\CCN(C3=O)[C@@H](Cc3ccc(C)cc3)C(=O)N(C)CC(=O)N[C@@H](CCc3ccc(C(F)(F)F)c(OC)c3)C(=O)N2C1 [PP2170] |  | 0.33 nM | A (a compound having 10 or more and less than 20 is denoted as A) | A (a compound having 10 or more and less than 20 is denoted as A) |  |  |  | 
2 | CCC[C@H]1C(=O)N[C@@H]([C@@H](C)CC)C(=O)N(C2CC2)CC(=O)N(C)[C@H]2C/C=C\CCN(C2=O)[C@@H](Cc2ccc(C)cc2)C(=O)N(C)CC(=O)N[C@@H](CCc2cc(F)c(C(F)(F)F)c(F)c2)C(=O)N2C[C@H](OCC)C[C@H]2C(=O)NC2(CC(C)(C)C2)C(=O)N(C)[C@@H](C2CCCC2)C(=O)N(C)[C@H](C(=O)N(C)C)CC(=O)N1C [PP2093, (2S,8S,12R,14S,20S,23S,27S,30S,36S,38Z)-20-cyclopentyl-32-cyclopropyl-8-[2-[3,5-difluoro-4-(trifluoromethyl)phenyl]ethyl]-12-ethoxy-N,N,3′,3′,4,19,22,26,35-nonamethyl-30-[(1S)-1-methylpropyl]-3,6,9,15,18,21,25,28,31,34,42-undecaoxo-27-propyl-2-(p-tolylmethyl)spiro[1,4,7,10,16,19,22,26,29,32,35-undecazatricyclo[34.5.1.0^10,14]dotetracont-38-ene-17,1′-cyclobutane]-23-carboxamide] |  | 0.33 nM | A (a compound having 10 or more and less than 20 is denoted as A) | A (a compound having 10 or more and less than 20 is denoted as A) |  |  |  | 
3 | CCC[C@H]1C(=O)N[C@@H]([C@@H](C)CC)C(=O)N(C)CC(=O)N(C)[C@H]2C/C=C\CCN(C2=O)[C@@H](Cc2ccc(C)cc2)C(=O)N(C)CC(=O)N[C@@H](CCc2ccc(Cl)c(OC)c2)C(=O)N2C[C@H](OCC)C[C@H]2C(=O)NC2(CC(C)(C)C2)C(=O)N(C)[C@@H](C2CCCC2)C(=O)N(C)[C@H](C(=O)N(C)C)CC(=O)N1C [PP2790] | 0.54 nM |  |  |  |  |  | A (a compound having 10 or more and less than 20 is denoted as A) | A (a compound having 10 or more and less than 20 is denoted as A)

Second part, led by results:

Row | Kd [2, 5] | Kd ([2]; SPR, Single Cycle Kinetics) | SMILES | NRAS/KRAS (ratio of KD value for NRAS to KD value for KRAS) [1, 4] | HRAS/KRAS (ratio of KD value for HRAS to KD value for KRAS) [3, 6] | NRAS/KRAS (ratio of KD value with respect to NRAS to KD value with respect to KRAS) [1, 4] | HRAS/KRAS (ratio of KD value with respect to HRAS to KD value with respect to KRAS) [3, 6] | NRAS/KRAS (ratio of KD value with respect to GDP-bound NRAS wild-type protein to KD value with respect to KRAS) ([1]; SPR KD ratio NRAS/KRAS, class symbols) | HRAS/KRAS (ratio of KD value with respect to GDP-bound HRAS wild-type protein to KD value with respect to KRAS) ([3]; SPR KD ratio HRAS/KRAS, class symbols)
4 | 0.27 nM |  | C#CCN1C(=O)[C@@H]2CCN2C(=O)[C@H](C)N(C)C(=O)[C@H]([C@@H](C)CC)NC(=O)[C@H](CC(C)C)N(C)C(=O)C[C@@H](C(=O)N2CCOCC2)N(C)C(=O)[C@H](C2CCCC2)N(C)C(=O)C2(CCCC2)NC(=O)[C@@H]2CCCN2C(=O)[C@H](CCc2ccc(C(F)(F)F)c(Cl)c2)NC(=O)CN(C)C(=O)[C@@H]1Cc1ccc(C(F)(F)F)cc1 [PP0116] ([NMeL]I[NMeA][Aze][X38][Sar][hPhe(3-Cl-4-CF3)]P[Ac5c][NMeGly(cPent)][NMeD]-Morpholide; lactam N-11) | C (A compound having a KD ratio of 0.1 or more and less than 3 is denoted as C) | C (A compound having a KD ratio of 0.1 or more and less than 3 is denoted as C) |  |  |  | 
5 | 0.07 nM |  | CCCN1C(=O)[C@@H]2CCN2C(=O)CN(C)C(=O)[C@H]([C@@H](C)CC)NC(=O)[C@H](CC(C)C)N(C)C(=O)C[C@@H](C(=O)N2CCOCC2)N(C)C(=O)[C@H](C2CCCC2)N(C)C(=O)C2(CCCC2)NC(=O)[C@@H]2CC(C)(C)CN2C(=O)[C@H](CCc2ccc(C(F)(F)F)c(Cl)c2)NC(=O)CN(C)C(=O)[C@@H]1Cc1ccc(C(F)(F)F)cc1 [PP0456] ([NMeL]I[Sar][Aze][NPrPhe(4-CF3)][Sar][hPhe(3-Cl-4-CF3)][Pro(4,4-Me2)][Ac5c][NMeGly(cPent)][NMeD]-Morpholide; lactam N-11) |  |  | C (A compound having a KD ratio of 0.1 or more and less than 3 is denoted as C) | C (A compound having a KD ratio of 0.1 or more and less than 3 is denoted as C) |  | 
6 |  | 0.063 nM | CC[C@H](C)[C@@H]1NC(=O)[C@H](CC(C)C)N(C)C(=O)C[C@@H](C(=O)N2CCOCC2)N(C)C(=O)[C@H](C2CCCC2)N(C)C(=O)C2(CCC2)NC(=O)[C@@H]2[C@@H](OCC3CC3)CCN2C(=O)[C@H](CCc2cc(F)c(C(F)(F)F)c(F)c2)NC(=O)CN(C)C(=O)[C@H](Cc2ccc(C(F)(F)F)cc2)N2CCCC[C@@H](C2=O)N(C)C(=O)CN(C)C1=O [PP1072] | B (a compound having 3 or more and less than 10 is denoted as B) | B (a compound having 3 or more and less than 10 is denoted as B) |  |  |  | 

From patent US20240158446A1, “CYCLIC COMPOUND HAVING SELECTIVE INHIBITORY ACTION ON KRAS OVER HRAS AND NRAS” (CHUGAI SEIYAKU KABUSHIKI KAISHA, priority 2021, published 2024)
